Measurements published in patent US11566022B2, “3-(5-methoxy-1-oxoisoindolin-2-yl)piperidine-2,6-dione derivatives and uses thereof” (NOVARTIS AG, priority 2019, dated 2023).
Read-outs that look alike come from different tables or passages of the source.

Tests used:
[1] = SCD, current standard of care; cited from earlier work
HiBit-WIZ fusion protein = HiBit-WIZ fusion protein (Homo sapiens, UniProt O95785+Q96SW2); test: Quantification of WIZ protein levels in HiBit tag fusion protein assay (WIZ HiBit assay in 293T cells); type: cell-based; parameters: Dmax: dose or concentration left out as unconfirmed
Sequence of HiBit-WIZ fusion protein (O95785 whole entry, the tested form may be a part): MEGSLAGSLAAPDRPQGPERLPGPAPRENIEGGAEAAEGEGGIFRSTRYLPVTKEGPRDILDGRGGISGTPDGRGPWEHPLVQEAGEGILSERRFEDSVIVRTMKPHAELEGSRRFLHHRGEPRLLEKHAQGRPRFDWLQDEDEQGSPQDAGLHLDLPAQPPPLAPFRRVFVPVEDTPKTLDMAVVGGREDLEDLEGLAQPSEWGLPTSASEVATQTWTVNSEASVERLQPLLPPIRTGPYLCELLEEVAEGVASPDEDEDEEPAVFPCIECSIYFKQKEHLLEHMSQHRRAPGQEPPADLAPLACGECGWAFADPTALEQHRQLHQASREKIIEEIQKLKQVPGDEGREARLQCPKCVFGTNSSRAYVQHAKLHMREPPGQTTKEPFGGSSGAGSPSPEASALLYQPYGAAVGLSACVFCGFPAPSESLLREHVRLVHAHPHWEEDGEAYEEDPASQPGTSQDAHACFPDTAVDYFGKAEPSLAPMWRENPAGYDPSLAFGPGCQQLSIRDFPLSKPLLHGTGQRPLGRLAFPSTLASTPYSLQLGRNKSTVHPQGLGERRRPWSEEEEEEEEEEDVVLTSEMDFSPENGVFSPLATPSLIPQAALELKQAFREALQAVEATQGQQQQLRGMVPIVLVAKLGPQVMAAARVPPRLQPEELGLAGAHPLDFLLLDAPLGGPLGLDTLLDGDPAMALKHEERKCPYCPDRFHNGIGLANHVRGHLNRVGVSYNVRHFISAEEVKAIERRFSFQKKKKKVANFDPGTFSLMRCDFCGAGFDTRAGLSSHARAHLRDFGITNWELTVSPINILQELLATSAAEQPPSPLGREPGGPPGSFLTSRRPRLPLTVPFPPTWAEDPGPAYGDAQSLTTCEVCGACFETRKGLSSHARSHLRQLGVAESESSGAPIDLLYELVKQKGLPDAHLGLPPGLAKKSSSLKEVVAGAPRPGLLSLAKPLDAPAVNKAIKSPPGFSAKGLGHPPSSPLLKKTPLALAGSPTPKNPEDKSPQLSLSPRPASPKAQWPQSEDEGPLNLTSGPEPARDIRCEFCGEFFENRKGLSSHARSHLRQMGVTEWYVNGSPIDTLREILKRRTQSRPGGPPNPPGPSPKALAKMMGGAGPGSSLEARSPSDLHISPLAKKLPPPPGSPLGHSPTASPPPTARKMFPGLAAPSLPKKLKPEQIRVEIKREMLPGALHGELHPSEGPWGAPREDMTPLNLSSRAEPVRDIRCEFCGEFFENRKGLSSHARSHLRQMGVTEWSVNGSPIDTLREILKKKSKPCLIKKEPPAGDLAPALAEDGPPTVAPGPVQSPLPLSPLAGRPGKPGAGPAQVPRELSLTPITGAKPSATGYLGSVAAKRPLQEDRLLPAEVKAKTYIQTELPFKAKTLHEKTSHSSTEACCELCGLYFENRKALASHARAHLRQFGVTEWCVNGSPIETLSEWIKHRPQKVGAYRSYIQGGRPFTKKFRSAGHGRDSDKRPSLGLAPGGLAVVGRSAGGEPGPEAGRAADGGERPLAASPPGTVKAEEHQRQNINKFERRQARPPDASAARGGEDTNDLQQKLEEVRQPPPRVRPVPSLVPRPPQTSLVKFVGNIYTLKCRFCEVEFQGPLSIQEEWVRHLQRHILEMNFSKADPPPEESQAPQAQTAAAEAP
Sequence of HiBit-WIZ fusion protein (Q96SW2 whole entry, the tested form may be a part): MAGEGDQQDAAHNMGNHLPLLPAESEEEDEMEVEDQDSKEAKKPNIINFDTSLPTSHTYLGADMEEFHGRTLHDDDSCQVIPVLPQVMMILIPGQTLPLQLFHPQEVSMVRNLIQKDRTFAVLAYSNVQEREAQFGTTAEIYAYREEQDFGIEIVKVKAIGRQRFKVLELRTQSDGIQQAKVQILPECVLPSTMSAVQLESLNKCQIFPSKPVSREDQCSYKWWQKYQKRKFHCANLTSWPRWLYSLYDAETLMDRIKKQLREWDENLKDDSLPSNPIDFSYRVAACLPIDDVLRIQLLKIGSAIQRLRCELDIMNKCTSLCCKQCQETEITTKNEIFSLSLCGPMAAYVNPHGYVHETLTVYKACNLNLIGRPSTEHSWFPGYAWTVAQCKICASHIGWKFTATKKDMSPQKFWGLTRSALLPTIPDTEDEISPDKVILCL
Sequence of HiBit-WIZ fusion protein (Q16531 whole entry partner, the tested form may be a part): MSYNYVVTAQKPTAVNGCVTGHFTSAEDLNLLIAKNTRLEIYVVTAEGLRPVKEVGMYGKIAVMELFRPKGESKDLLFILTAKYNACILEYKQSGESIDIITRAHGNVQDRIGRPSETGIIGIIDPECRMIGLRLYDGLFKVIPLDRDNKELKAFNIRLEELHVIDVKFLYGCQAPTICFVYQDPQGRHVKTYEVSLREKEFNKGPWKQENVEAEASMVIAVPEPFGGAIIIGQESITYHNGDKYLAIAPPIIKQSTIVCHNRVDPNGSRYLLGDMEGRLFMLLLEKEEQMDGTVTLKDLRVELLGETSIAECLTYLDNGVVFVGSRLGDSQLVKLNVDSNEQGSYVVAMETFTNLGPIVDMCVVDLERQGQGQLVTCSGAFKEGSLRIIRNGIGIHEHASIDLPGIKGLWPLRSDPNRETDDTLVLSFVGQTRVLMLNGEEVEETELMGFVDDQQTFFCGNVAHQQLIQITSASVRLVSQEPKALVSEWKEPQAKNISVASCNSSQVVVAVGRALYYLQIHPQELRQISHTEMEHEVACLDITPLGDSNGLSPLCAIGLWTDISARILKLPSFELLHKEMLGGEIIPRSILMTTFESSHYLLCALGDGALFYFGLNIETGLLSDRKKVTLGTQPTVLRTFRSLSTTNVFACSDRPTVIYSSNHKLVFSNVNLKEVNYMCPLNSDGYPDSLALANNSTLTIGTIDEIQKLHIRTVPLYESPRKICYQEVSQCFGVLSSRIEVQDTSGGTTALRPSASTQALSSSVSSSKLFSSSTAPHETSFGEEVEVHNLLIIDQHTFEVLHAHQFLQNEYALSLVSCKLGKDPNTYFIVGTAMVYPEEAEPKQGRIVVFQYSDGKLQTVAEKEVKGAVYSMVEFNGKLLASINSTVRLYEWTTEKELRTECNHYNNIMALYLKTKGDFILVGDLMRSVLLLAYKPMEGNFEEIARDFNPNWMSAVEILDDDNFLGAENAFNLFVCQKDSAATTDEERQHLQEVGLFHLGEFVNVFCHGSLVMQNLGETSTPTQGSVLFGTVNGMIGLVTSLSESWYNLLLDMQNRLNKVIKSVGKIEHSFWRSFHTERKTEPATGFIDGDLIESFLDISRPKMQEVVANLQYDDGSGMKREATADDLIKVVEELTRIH

[2] = HEK-293T, 100 minus Amax; 293T cells; read-out: % degradation of WIZ (100-Amax)
[3] = HEK-293T, DMSO-normalized, curve-fitted percentage of WIZ-HiBit remaining at 25 uM; 293T cells; read-out: WIZ Amax
[4] = WIZ HiBit assay in 293T cells; 10-point, 5-fold dose response, highest concentration 25 μM, about 18 hours; read-out: WIZ AC50

Row | SMILES | response rate [1] | Dmax (HiBit-WIZ fusion protein; [2]) [%] | remaining activity at up to 25 µM (HiBit-WIZ fusion protein; [3]) [%] | DC50 (HiBit-WIZ fusion protein; [4]) [nM] | Dmax (HiBit-WIZ fusion protein; HEK-293T, read-out: % degradation of WIZ (100-Amax)) [%] | remaining activity (HiBit-WIZ fusion protein; HEK-293T, read-out: WIZ Amax) [%] | DC50 (HiBit-WIZ fusion protein; read-out: WIZ AC50; WIZ HiBit assay in 293T cells; 10-point, 5-fold dose response, highest concentration 25 μM, about 18 hours) [nM]
1 | NC(=O)NO [Hydroxyurea] | less than 40% |  |  |  |  |  | 
2 | O=C1CCC(N2Cc3cc(OC[C@@H]4CCCCN4C(=O)C=C4CCCCC4)ccc3C2=O)C(=O)N1 (stereo partly shown) [Compound I-72dm] |  | 11.5 | 88.5 | > 25000 |  |  | 
3 | O=C1CCC(N2Cc3cc(OC[C@H]4CCCCN4CC45CC(F)(C4)C5)ccc3C2=O)C(=O)N1 (stereo partly drawn) [Compound I-100, 3-(5-(((R)-1-((3-fluorobicyclo[1.1.1]pentan-1-yl)methyl)piperidin-2-yl)methoxy)-1-oxoisoindolin-2-yl)piperidine-2,6-dione] |  | 82.2 | 17.8 | 410 |  |  | 
4 | NS(=O)(=O)c1ccc(CN2CCCC[C@@H]2COc2ccc3c(c2)CN(C2CCC(=O)NC2=O)C3=O)cc1 (stereo partly shown) [Compound I-50ef] |  |  |  |  | 85.2 | 14.8 | 1460
5 | CO[C@H]1C[C@@H](CN2CCCC[C@@H]2COc2ccc3c(c2)CN(C2CCC(=O)NC2=O)C3=O)C1 (stereo partly drawn) [Compound I-118, 3-(5-(((R)-1-(((1s,3S)-3-methoxycyclobutyl)methyl)piperidin-2-yl)methoxy)-1-oxoisoindolin-2-yl)piperidine-2,6-dione] |  | 85.4 | 14.6 | 380 |  |  | 
